Like-named read-outs stand apart in the source and are kept apart here.
Experiments:
ACK1 = biological target: T1, ACK1 (Homo sapiens, UniProt Q07912); assay: Enzyme activity inhibition (Reaction Biology); assay type: biochemical
T1 construct: purchased Reaction Biology (RBC)
Description: (§1) [* <10 nM: A, <100 nM: B, >100 nM: C]. [Table 7]

BMX = biological target: T2, BMX (Homo sapiens, UniProt P51813); assay: Enzyme activity inhibition (Reaction Biology); assay type: biochemical
T2 construct: purchased Reaction Biology (RBC)
T2 sequence (P51813 1-675): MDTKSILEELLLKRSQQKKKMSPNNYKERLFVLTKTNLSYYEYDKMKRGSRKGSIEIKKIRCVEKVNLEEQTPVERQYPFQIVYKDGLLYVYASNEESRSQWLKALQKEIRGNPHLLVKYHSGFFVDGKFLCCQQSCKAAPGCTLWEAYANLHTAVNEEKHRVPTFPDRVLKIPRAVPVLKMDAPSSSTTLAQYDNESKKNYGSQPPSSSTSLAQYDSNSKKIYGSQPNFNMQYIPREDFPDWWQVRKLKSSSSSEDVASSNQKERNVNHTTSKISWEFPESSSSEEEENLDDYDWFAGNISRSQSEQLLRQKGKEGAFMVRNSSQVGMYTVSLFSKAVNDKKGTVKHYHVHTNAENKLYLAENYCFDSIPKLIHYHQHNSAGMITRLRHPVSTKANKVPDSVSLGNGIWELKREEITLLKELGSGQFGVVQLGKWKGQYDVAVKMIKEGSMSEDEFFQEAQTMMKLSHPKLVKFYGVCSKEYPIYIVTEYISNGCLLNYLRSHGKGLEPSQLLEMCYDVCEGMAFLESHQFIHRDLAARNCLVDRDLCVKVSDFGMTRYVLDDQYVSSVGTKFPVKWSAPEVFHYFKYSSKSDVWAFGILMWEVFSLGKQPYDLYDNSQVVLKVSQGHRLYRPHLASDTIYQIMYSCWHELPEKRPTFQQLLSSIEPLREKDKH
Description: as §1

Src = biological target: T3, Src (Homo sapiens, UniProt P12931); assay: Enzyme activity inhibition (Reaction Biology); assay type: biochemical
T3 construct: purchased Reaction Biology (RBC)
T3 sequence (P12931 whole entry): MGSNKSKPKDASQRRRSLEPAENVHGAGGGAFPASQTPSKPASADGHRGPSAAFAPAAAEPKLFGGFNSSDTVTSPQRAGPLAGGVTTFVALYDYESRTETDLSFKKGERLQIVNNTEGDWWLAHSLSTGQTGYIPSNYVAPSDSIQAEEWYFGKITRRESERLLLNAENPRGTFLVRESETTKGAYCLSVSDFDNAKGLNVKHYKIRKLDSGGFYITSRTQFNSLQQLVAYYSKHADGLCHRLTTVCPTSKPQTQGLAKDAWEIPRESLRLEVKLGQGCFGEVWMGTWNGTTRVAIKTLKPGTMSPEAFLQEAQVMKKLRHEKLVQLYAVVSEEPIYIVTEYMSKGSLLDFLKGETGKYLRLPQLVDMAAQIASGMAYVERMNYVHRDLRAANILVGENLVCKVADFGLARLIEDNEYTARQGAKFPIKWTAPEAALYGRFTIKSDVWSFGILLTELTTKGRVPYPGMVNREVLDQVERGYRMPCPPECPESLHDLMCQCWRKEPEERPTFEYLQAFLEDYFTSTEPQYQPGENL
Description: as §1

A172 = assay: Cell line inhibition analysis (CCK-8, 72 h); assay type: cell-based; details: Homo sapiens, A 172; read-out: Cell growth inhibition GI50 A172
Description: (§2) C4-2B and 22Rv1 cells were purchased from ATCC and cultured according to the manufacturer's instructions. The cells were seeded in 96-well plates at 7×10^3cells/100 µl/well and allowed to attach for one day. After removing the culture medium, 90 µl/well of fresh culture medium was added, followed by addition of 10 µl/well of culture medium containing compounds at nine concentrations (0.076-500 µM) serially diluted 3-fold and DMSO control to achieve final concentrations of 0-50 µM, and then cultured for 72 hours in a 37 °C CO2 incubator. Cell proliferation after 72 hours was assessed by adding 10 µl/well of CCK-8 solution, orbital shaking for 30 seconds, then incubating at 37 °C CO2 incubator for 2 hours and measuring absorbance at 450 nm using a microplate reader. The measured absorbance values were corrected by subtracting the absorbance of wells containing only culture medium and CCK-8 solution, and GI50 values were calculated using GraphPad Prism 8 software.
(§3) Meanwhile, in a separate 96-well plate, cells were seeded at 7 × 10^3 cells/100 µl/well, allowed to attach for one day, CCK-8 solution was added, and absorbance was measured to establish the 'Growth (%) = 0' value.
(§4) Furthermore, experiments were conducted on A172, A549, HCI-H460, AsPC-1, MIA-Paca-2, DLD-1, HCT-116, HT-29, SW480, SW620, MDA-MB-231, and SKOV3 cell lines using the same method, with results shown in Tables 9 and 10 below [* <1 µM: A, <5 µM: B, <10 µM: C, >10 µM: D].

A549 = assay: Cell line inhibition analysis (CCK-8, 72 h); assay type: cell-based; details: Homo sapiens, read-out: Cell growth inhibition GI50 A549
Description: as §2, §3, §4

AsPC-1 = assay: Cell line inhibition analysis (CCK-8, 72 h); assay type: cell-based; details: Homo sapiens, ASPC1; read-out: Cell growth inhibition GI50 AsPC-1
Description: as §2, §3, §4

DLD-1 = assay: Cell line inhibition analysis (CCK-8, 72 h); assay type: cell-based; details: Homo sapiens, read-out: Cell growth inhibition GI50 DLD-1
Description: as §2, §3, §4

HCI-H460 = assay: Cell line inhibition analysis (CCK-8, 72 h); assay type: cell-based; details: read-out: Cell growth inhibition GI50 HCI-H460
Description: as §2, §3, §4

HCT-116 = assay: Cell line inhibition analysis (CCK-8, 72 h); assay type: cell-based; details: Homo sapiens, read-out: Cell growth inhibition GI50 HCT-116
Description: as §2, §3, §4

HT-29 = assay: Cell line inhibition analysis (CCK-8, 72 h); assay type: cell-based; details: Homo sapiens, read-out: Cell growth inhibition GI50 HT-29
Description: as §2, §3, §4

MDA-MB-231 = assay: Cell line inhibition analysis (CCK-8, 72 h); assay type: cell-based; details: Homo sapiens, read-out: Cell growth inhibition GI50 MDA-MB-231
Description: as §2, §3, §4

MIA-Paca-2 = assay: Cell line inhibition analysis (CCK-8, 72 h); assay type: cell-based; details: Homo sapiens, read-out: Cell growth inhibition GI50 MIA-Paca-2
Description: as §2, §3, §4

SKOV3 = assay: Cell line inhibition analysis (CCK-8, 72 h); assay type: cell-based; details: Homo sapiens, SK-OV-3; read-out: Cell growth inhibition GI50 SKOV3
Description: as §2, §3, §4

SW480 = assay: Cell line inhibition analysis (CCK-8, 72 h); assay type: cell-based; details: Homo sapiens, read-out: Cell growth inhibition GI50 SW480
Description: as §2, §3, §4

SW620 = assay: Cell line inhibition analysis (CCK-8, 72 h); assay type: cell-based; details: Homo sapiens, SW-620; read-out: Cell growth inhibition GI50 SW620
Description: as §2, §3, §4

CDK2/CYCLIN A = CDK2/CYCLIN A (Homo sapiens, UniProt P24941); assay: Kinase panel; assay type: biochemical; details: read-out: residual enzyme activity
Description: (§5) To measure the inhibitory activity of protein kinases against the compounds of the present invention, a biochemical assay was performed using a full kinase panel. The inhibitory efficacy of kinases was measured when Example compounds 8 and 51 were treated at a single concentration of 1 µM, and residual enzyme activity values were calculated. Kinases were identified when the calculated residual enzyme activity values were 40% or less, i.e., inhibited by 60% or more.

EGFR = EGFR (Homo sapiens, UniProt P00533); assay: Kinase panel; assay type: biochemical; details: read-out: residual enzyme activity
Sequence of EGFR (P00533 25-1210, species assumed): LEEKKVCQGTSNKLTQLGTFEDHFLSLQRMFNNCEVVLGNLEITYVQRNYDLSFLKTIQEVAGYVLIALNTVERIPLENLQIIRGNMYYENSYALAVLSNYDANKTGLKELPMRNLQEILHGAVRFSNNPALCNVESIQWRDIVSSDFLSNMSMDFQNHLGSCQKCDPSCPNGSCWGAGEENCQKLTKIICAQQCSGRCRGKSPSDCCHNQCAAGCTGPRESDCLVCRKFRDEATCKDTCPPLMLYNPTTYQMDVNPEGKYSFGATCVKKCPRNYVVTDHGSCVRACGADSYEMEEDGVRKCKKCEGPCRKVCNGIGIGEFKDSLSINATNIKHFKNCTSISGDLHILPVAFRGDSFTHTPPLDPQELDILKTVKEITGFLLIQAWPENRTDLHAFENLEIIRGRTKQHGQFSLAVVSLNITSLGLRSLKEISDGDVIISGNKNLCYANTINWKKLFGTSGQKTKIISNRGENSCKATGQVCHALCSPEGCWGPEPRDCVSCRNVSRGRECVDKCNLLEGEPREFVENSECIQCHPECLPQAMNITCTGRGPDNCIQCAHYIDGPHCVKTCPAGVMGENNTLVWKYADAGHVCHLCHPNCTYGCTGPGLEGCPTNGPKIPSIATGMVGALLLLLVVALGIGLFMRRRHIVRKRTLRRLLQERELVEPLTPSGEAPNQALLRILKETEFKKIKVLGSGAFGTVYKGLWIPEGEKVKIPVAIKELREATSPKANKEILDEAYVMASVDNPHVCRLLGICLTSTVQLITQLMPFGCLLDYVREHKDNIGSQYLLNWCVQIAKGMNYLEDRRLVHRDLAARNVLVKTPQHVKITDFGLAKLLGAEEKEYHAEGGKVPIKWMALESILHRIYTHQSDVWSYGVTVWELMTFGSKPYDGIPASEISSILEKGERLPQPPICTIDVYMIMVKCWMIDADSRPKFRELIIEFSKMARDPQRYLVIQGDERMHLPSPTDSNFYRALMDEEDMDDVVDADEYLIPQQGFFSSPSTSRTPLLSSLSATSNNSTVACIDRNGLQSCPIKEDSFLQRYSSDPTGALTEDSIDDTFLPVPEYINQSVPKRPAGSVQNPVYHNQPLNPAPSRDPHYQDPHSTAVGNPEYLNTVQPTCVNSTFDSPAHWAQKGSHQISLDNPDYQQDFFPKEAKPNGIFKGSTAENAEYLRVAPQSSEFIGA
Description: as §5

FGFR2 = FGFR2 (Homo sapiens, UniProt P21802); assay: Kinase panel; assay type: biochemical; details: FGFR2, 1 µM; read-out: residual enzyme activity
Sequence of FGFR2 (P21802 22-821, species assumed): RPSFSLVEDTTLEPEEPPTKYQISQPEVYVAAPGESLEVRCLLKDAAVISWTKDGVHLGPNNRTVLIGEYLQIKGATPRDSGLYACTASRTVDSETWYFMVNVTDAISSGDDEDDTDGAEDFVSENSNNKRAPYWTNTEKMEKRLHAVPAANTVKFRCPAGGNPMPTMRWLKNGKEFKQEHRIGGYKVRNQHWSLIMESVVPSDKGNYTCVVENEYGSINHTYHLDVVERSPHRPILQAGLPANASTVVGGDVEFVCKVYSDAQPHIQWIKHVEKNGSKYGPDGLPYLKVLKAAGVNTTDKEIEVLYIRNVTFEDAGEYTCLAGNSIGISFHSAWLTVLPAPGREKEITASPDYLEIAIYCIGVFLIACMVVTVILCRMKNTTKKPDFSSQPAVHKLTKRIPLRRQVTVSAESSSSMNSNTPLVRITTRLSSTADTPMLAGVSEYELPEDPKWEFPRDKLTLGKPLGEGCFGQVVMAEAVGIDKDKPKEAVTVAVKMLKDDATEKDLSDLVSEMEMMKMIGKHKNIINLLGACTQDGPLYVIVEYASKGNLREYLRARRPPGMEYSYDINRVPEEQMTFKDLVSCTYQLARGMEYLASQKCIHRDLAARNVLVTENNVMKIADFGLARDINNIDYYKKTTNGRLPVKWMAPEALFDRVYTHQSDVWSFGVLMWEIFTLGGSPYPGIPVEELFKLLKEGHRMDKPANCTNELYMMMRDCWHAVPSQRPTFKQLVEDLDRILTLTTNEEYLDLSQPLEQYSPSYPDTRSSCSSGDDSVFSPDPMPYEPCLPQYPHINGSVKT
Description: as §5

GSK3A = GSK3A (Homo sapiens, UniProt P49840); assay: Kinase panel; assay type: biochemical; details: read-out: residual enzyme activity
Sequence of GSK3A (P49840 whole entry, species assumed): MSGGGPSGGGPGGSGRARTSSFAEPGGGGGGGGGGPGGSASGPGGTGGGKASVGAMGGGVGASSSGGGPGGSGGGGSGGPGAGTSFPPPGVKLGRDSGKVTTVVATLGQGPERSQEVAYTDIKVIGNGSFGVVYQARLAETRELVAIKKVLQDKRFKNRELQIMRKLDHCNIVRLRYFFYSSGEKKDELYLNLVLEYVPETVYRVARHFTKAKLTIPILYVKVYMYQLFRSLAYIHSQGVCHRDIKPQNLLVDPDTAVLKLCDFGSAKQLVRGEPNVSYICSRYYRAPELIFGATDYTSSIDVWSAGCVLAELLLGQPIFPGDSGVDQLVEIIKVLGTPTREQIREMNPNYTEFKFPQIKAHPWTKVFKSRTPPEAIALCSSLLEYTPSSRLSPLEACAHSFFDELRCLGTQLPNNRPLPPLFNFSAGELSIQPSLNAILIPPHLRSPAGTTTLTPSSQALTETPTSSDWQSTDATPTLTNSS
Description: as §5

MNK2 = MNK2 (Homo sapiens, UniProt Q9HBH9); assay: Kinase panel; assay type: biochemical; details: MNK2, 1 µM; read-out: residual enzyme activity
Sequence of MNK2 (Q9HBH9 whole entry, species assumed): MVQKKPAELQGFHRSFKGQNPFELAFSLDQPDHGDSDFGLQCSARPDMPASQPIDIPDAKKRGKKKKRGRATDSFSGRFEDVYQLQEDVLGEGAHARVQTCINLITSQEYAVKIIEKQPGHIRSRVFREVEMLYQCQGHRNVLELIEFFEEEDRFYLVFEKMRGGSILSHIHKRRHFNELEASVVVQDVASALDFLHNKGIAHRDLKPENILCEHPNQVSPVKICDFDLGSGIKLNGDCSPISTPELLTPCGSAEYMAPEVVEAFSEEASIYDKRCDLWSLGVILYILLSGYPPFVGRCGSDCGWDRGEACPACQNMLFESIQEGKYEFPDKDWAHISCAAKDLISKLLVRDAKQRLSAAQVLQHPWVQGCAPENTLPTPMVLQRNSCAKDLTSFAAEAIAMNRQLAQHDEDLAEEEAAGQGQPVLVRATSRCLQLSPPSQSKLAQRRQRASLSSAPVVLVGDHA
Description: as §5

T1 sequence (Q07912 whole entry): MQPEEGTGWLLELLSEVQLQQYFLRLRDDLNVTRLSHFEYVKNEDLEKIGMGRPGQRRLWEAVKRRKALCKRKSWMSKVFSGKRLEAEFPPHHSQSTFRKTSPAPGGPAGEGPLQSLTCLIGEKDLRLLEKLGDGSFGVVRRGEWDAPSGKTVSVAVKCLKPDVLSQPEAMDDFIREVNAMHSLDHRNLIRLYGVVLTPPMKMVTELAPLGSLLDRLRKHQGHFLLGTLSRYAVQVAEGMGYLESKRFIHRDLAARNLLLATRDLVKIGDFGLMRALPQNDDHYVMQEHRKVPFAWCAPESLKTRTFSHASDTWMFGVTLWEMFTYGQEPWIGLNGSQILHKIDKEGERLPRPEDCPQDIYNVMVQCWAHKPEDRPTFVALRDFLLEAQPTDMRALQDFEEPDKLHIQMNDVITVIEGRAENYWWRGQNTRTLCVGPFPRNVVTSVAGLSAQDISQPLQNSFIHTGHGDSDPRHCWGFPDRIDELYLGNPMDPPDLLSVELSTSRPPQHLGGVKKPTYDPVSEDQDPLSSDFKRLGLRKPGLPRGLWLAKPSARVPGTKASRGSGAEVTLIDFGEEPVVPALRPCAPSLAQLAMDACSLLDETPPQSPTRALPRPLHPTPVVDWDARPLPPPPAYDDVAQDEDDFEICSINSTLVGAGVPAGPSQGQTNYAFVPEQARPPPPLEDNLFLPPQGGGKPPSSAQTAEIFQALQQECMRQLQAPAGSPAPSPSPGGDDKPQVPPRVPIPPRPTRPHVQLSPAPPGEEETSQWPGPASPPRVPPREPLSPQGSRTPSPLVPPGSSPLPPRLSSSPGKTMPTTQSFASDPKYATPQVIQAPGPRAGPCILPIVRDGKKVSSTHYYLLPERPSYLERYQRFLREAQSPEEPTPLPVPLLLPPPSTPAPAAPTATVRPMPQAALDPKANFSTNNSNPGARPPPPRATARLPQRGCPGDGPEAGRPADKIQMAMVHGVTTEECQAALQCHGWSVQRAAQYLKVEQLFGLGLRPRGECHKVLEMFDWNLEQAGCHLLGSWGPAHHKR

| Compound | IC50 (ACK1) | IC50 (BMX) | IC50 (Src) | GI50 (A172) | GI50 (A549) | GI50 (AsPC-1) | GI50 (DLD-1) | GI50 (HCI-H460) | GI50 (HCT-116) | GI50 (HT-29) | GI50 (MDA-MB-231) | GI50 (MIA-Paca-2) | GI50 (SKOV3) | GI50 (SW480) | GI50 (SW620) | remaining activity at 1 µM (CDK2/CYCLIN A) | remaining activity at 1 µM (EGFR) | remaining activity at 1 µM (FGFR2) | remaining activity at 1 µM (MNK2) | other results |
| --- | --- | --- | --- | --- | --- | --- | --- | --- | --- | --- | --- | --- | --- | --- | --- | --- | --- | --- | --- | --- |
| Cc1cn(-c2cc(C(=O)Nc3ccc(C)c(N4Cc5cnc(NC6CC6)nc5C5(CC5)C4=O)c3)cc(C(F)(F)F)c2)cn1 [Compound 8, N-(3-(2'-(cyclopropylamino)-7'-oxo-5'H-spiro[cyclopropane-1,8'-pyrido[4,3-d]pyrimidine]-6'(7'H)-yl)-4-methylphenyl)-3-(4-methyl-1H-imidazol-1-yl)-5-(trifluoromethyl)benzamide] | < 0.01 µM | < 0.01 µM | 0.01 to 0.1 µM | < 1 µM | > 10 µM | 1 to 5 µM | 1 to 5 µM | 1 to 5 µM | < 1 µM | > 10 µM | 1 to 5 µM | < 1 µM | 1 to 5 µM | 1 to 5 µM | 1 to 5 µM | > 40% | ≤ 40% | ≤ 40% | > 40% | remaining activity at 1 µM (GSK3A; GSK3A): > 40% |
| Cc1ccc(Nc2ncc3c(n2)C2(CC2)C(=O)N(c2cc(NC(=O)c4cccc(C(F)(F)F)c4)ccc2C)C3)cn1 [Compound 51, N-(4-methyl-3-(2'-((6-methylpyridin-3-yl)amino)-7'-oxo-5'H-spiro[cyclopropane-1,8'-pyrido[4,3-d]pyrimidine]-6'(7'H)-yl)phenyl)-3-(trifluoromethyl)benzamide] | 0.01 to 0.1 µM | < 0.01 µM | < 0.01 µM | < 1 µM | 1 to 5 µM | < 1 µM | 1 to 5 µM | < 1 µM | < 1 µM | 1 to 5 µM | < 1 µM | < 1 µM | < 1 µM | < 1 µM | 1 to 5 µM | > 40% | ≤ 40% | ≤ 40% | > 40% | remaining activity at 1 µM (GSK3A; GSK3a): > 40% |

From patent EP4722212A1, “NOVEL COMPOUND FOR INHIBITING PROTEIN KINASES AND PHARMACEUTICAL COMPOSITION COMPRISING SAME” (Magicbullettherapeutics Co., Ltd., priority 2023, dated 2024)
